Series [1] is described as follows: T1 relaxation / T1-weighted image of HMS suspensions (3.0-T MR scanner). The series is classed as physicochemical. The note with it: comparison value for free Mn2+. The procedure: The release profile of manganese ions from HMS was quantified at room temperature using 8 mg of HMS suspensions in 16 ml of citrate buffer at pH 5 and pH 6.2 and distilled water. 4 ml of each HMS suspensions was collected from samples at 15 minutes, 1 hour, 7 hours and 20 hours, and the nanoparticles (NPs) of the sample were removed by centrifugation at 15,000 rpm for 10 minutes, and each supernatant was filtered by using syringe filter with […] of pore size. The amount of each released manganese ion and the T1 relaxation time of the proton in each supernatant were quantified using ICP-AES and a 3.0-T clinical MR scanner (Philips, Achieva ver. 1.2, Philips Medical Systems, Best, The Netherlands).
The Mn release property and T1 contrast enhancing property of HMS prepared in Example 1-2 were tested according to Example 1-3.

The nature of series [2]: T1-weighted MRI of supernatants with released Mn2+ ions (R1, r1). Conditions: MnCl2 aqueous solution. In kind it is physicochemical. The source says:
The contrast signal intensity of the photographed image was digitized (R1, unit=[…]), and shown in the graph of FIG. 9b. It is inferred that the released Mn^2+ ions can increase the contrast effect in T1-weighted image, on the basis that FIG. 9b is almost consistent with the graph of the release rate of Mn^2+ ions for each particle shown in FIG. 8e.
Next, the relationship between the concentration of Mn^2+ ions and the contrast intensity R1 of the image is shown in the graph of FIG. 9c. The slope of this graph is expressed as r1, and is a unique value for each material.

Consider one molecule from patent publication US20210106698A1, “LIVER-SPECIFIC MRI CONTRAST AGENT INCLUDING MANGANESE SILICATE NANOPARTICLES” (POSTECH ACADEMY-INDUSTRY FOUNDATION, priority 2017, published 2021).

Each structure is given as a SMILES string.

`[Cl][Mn][Cl]` [MnCl2]: the “r1 value of free manganese ions” value in series [1] was determined as 7.8 s⁻¹ mM⁻¹. Besides, in series [2], the “r1 value for pure Mn^2+ ions” value was “about 7.4”.
